This passage reports melting point results from patent US7423158B2, “Amino-5-[4-(difluoromethoxy)phenyl]-5-phenylimidazolone compounds for the inhibition of β-secretase” (Wyeth, priority 2005, dated 2008).

Each structure is given as a SMILES string.

Usually melting point stands for the temperature, or range, at which the solid turns liquid.

Molecule `CN1C(=O)C(c2ccc(OC(F)F)cc2)(c2cccc(C3CC(O)C3)c2)N=C1N` (centres unmarked) [Example 89, 2-Amino-5-[4-(difluoromethoxy)phenyl]-5-[3-(3-hydroxycyclobutyl)phenyl]-3-methyl-3,5-dihydro-4H-imidazol-4-one] came in with a melting point of 186 to 190 °C.

`CCOCc1cccc(C2(c3ccc(OC(F)F)cc3)N=C(N)N(C)C2=O)c1` (centres unmarked) [Example 35, 2-amino-5-[4-(difluoromethoxy)phenyl]-5-[3-(ethoxymethyl)phenyl]-3-methyl-3,5-dihydro-4H-imidazol-4-one]: the melting point was 45 to 48 °C.

`CN1C(=O)C(c2ccc(OC(F)F)cc2)(c2cccc(COC(CF)CF)c2)N=C1N` (centres unmarked) [Example 37, 2-amino-5-[4-(difluoromethoxy)phenyl]-5-(3-{[2-fluoro-1-(fluoromethyl)ethoxy]methyl}phenyl)-3-methyl-3,5-dihydro-4H-imidazol-4-one] yielded a melting point of 46 to 50 °C.

In the case of `CN1C(=O)C(c2ccc(OC(F)F)cc2)(c2cccc(CCF)c2)N=C1N` (centres unmarked) [Example 55, 2-Amino-5-[4-(difluoromethoxy)phenyl]-5-[3-(2-fluoroethyl)phenyl]-3-methyl-3,5-dihydro-4H-imidazol-4-one], the melting point lay in the range of 60 to 63 °C.

`C=CCCc1cc(C2(c3ccc(OC(F)F)cc3)N=C(N)N(C)C2=O)ccc1F` (centres unmarked) [Example 84, 2-Amino-5-(3-but-3-en-1-yl-4fluorophenyl)-5-[4-(difluoromethoxy)phenyl]-3-methyl-3,5-dihydro-4H-imidazol-4-one] registered a melting point of 55 to 58 °C.

`CN1C(=O)C(c2ccc(OC(F)F)cc2)(c2cccc(CCCCC#N)c2)N=C1N` (centres unmarked) [Example 14, 5-(3-{2-Amino-4-[4-(difluoromethoxy)phenyl]-1-methyl-5-oxo-4,5-dihydro-1H-imidazol-4-yl}phenyl)pentanenitrile] showed a melting point of 65 °C.

The molecule `CCOC(=O)C=C1CC(c2cccc(C3(c4ccc(OC(F)F)cc4)N=C(N)N(C)C3=O)c2)C1` (centres unmarked) [Example 90, Ethyl [3-(3-{2-Amino-4-[4-(difluoromethoxy)phenyl]-1-methyl-5-oxo-4,5-dihydro-1H-imidazol-4-yl}phenyl)cyclobutylidene]acetate] returned a melting point of 78 to 80 °C.

The molecule `CCCOCc1cccc(C2(c3ccc(OC(F)F)cc3)N=C(N)N(C)C2=O)c1` (centres unmarked) [Example 36, 2-amino-5-[4-(difluoromethoxy)phenyl]-3-methyl-5-[3-(propoxymethyl)phenyl]-3,5-dihydro-4H-imidazol-4-one] returned a melting point of 40 to 43 °C.

The molecule `CN1C(=O)C(c2ccc(OC(F)F)cc2)(c2cccc(OCCCC(F)(F)F)c2)N=C1N` (centres unmarked) [Example 62, 2-amino-5-[4-(difluoromethoxy)phenyl]-3-methyl-5-[3-(4,4,4-trifluorobutoxy)phenyl]-3,5-dihydro-4H-imidazol-4-one] had a melting point of 82 to 85 °C.

The molecule `CN1C(=O)C(c2ccc(OC(F)F)cc2)(c2cccc(COCCC(F)(F)F)c2)N=C1N` (centres unmarked) [Example 31, 2-amino-5-[4-(difluoromethoxy)phenyl]-3-methyl-5-{3-[(3,3,3-trifluoropropoxy)methyl]phenyl}-3,5-dihydro-4H-imidazol-4-one] showed a melting point of 46 to 48 °C.

In turn, `CN1C(=O)C(c2ccc(OC(F)F)cc2)(c2cccc(COCC3CC3)c2)N=C1N` (centres unmarked) [Example 34, 2-amino-5-{3-[(cyclopropylmethoxy)methyl]phenyl}-5-[4-(difluoromethoxy)phenyl]-3-methyl-3,5-dihydro-4H-imidazol-4-one] registered a melting point of 47 to 50 °C.

For `CN1C(=O)C(c2ccc(OC(F)F)cc2)(c2cccc(OCCCCF)c2)N=C1N` (centres unmarked) [Example 64, 2-amino-5-[4-(difluoromethoxy)phenyl]-5-[3-(4-fluorobutoxy)phenyl]-3-methyl-3,5-dihydro-4H-imidazol-4-one], the melting point lay in the range of 139 to 140 °C.

Molecule `COCc1cccc(C2(c3ccc(OC(F)F)cc3)N=C(N)N(C)C2=O)c1` (centres unmarked) [Example 32, 2-amino-5-[4-(difluoromethoxy)phenyl]-5-[3-(methoxymethyl)phenyl]-3-methyl-3,5-dihydro-4H-imidazol-4-one] yielded a melting point of 70 to 72 °C.

For the molecule `CN1C(=O)C(c2ccc(OC(F)F)cc2)(c2cccc(COCCF)c2)N=C1N` (centres unmarked) [Example 30, 2-Amino-5-[4-(difluoromethoxy)phenyl]-5-{3-[(2-fluoroethoxy)methyl]phenyl}-3-methyl-3,5-dihydro-4H-imidazol-4-one], the melting point lay in the range of 40 to 43 °C.

Molecule `CN1C(=O)C(c2ccc(OC(F)F)cc2)(c2cccc(CCCCO)c2)N=C1N` (centres unmarked) [Example 21, 2-Amino-5-[4-(difluoromethoxy)phenyl]-5-[3-(4-hydroxybutyl)phenyl]-3-methyl-3,5-dihydro-4H-imidazol-4-one] gave a melting point of 63 to 66 °C.

`CN1C(=O)C(c2ccc(OC(F)F)cc2)(c2cccc(C3CC(=O)C3)c2)N=C1N` (centres unmarked) [Example 88, 2-Amino-5-[4-(difluoromethoxy)phenyl]-3-methyl-5-[3-(3-oxocyclobutyl)phenyl]-3,5-dihydro-4H-imidazol-4-one] yielded a melting point of 68 to 70 °C.

For `COCCCCc1cccc(C2(c3ccc(OC(F)F)cc3)N=C(N)N(C)C2=O)c1` (centres unmarked) [Example 28, 2-amino-5-[4-(difluoromethoxy)phenyl]-5-[3-(4-methoxybutyl)phenyl]-3-methyl-3,5-dihydro-4H-imidazol-4-one], the melting point was 36 to 39 °C.

Turning to `COC(=O)CC1CC(c2cccc(C3(c4ccc(OC(F)F)cc4)N=C(N)N(C)C3=O)c2)C1` (centres unmarked) [Example 92, methyl [3-(3-{2-amino-4-[4-(difluoromethoxy)phenyl]-1-methyl-5-oxo-4,5-dihydro-1H-imidazol-4-yl}phenyl)cyclobutyl]acetate], the melting point is 68 to 70 °C.

In turn, `CN1C(=O)C(c2ccc(OC(F)F)cc2)(c2cccc(CCCC(F)F)c2)N=C1N` (centres unmarked) [Example 19, 2-Amino-5-[3-(4,4-difluorobutyl)phenyl]-5-[4-(difluoromethoxy)phenyl]-3-methyl-3,5-dihydro-4H-imidazol-4-one] had a melting point of 54 to 57 °C.

Molecule `CN1C(=O)C(c2ccc(OC(F)F)cc2)(c2cccc(OCCCF)c2)N=C1N` (centres unmarked) [Example 59, 2-Amino-5-[4-(difluoromethoxy)phenyl]-5-[3-(3-fluoropropox-1-yl)phenyl]-3-methyl-3,5-dihydro-4H-imidazol-4-one] came in with a melting point of 161 to 162 °C.

On to `CCCNC(=O)c1cccc(C2(c3ccc(OC(F)F)cc3)N=C(N)N(C)C2=O)c1` (centres unmarked) [Example 29, 3-{2-Amino-4-[4-(difluoromethoxy)phenyl]-1-methyl-5-oxo-4,5-dihydro-1H-imidazol-4-yl}-N-propylbenzamide], for which the melting point is 93 to 96 °C.

`CCCCOCc1cccc(C2(c3ccc(OC(F)F)cc3)N=C(N)N(C)C2=O)c1` (centres unmarked) [Example 33, 2-amino-5-[3-(butoxymethyl)phenyl]-5-[4-(difluoromethoxy)phenyl]-3-methyl-3,5-dihydro-4H-imidazol-4-one]: the melting point is 37 to 39 °C.

`COCCCc1cccc(C2(c3ccc(OC(F)F)cc3)N=C(N)N(C)C2=O)c1` (centres unmarked) [Example 24, 2-Amino-5-[4-(difluoromethoxy)phenyl]-5-[3-(3-methoxypropyl)phenyl]-3-methyl-3,5-dihydro-4H-imidazol-4-one] yielded a melting point of 48 to 50 °C.

Molecule `CN1C(=O)C(c2ccc(OC(F)F)cc2)(c2cccc(COCC(F)(F)C(F)F)c2)N=C1N` (centres unmarked) [Example 39, 2-amino-5-[4-(difluoromethoxy)phenyl]-3-methyl-5-{3-[(2,2,3,3-tetrafluoropropoxy)methyl]phenyl}-3,5-dihydro-4H-imidazol-4-one] showed a melting point of 48 to 50 °C.

For the molecule `C=C(F)CCc1cccc(C2(c3ccc(OC(F)F)cc3)N=C(N)N(C)C2=O)c1` (centres unmarked) [Example 17, 2-Amino-5-[4-(difluoromethoxy)phenyl]-5-[3-(3-fluorobut-3-en-1-yl)phenyl]-3-methyl-3,5-dihydro-4H-imidazol-4-one], the melting point was 58 to 60 °C.

The molecule `CN1C(=O)C(c2ccc(OC(F)F)cc2)(c2cccc(C3CC(=O)C3(C)C)c2)N=C1N` (centres unmarked) [Example 87, 2-Amino-5-[4-(difluoromethoxy)phenyl]-5-[3-(2,2-dimethyl-3-oxocyclobutyl)phenyl]-3-methyl-3,5-dihydro-4H-imidazol-4-one] showed a melting point of 172 to 174 °C.
